From patent US10227357B2, “Compounds and methods for kinase modulation, and indications therefor” (Plexxikon Inc., priority 2012, dated 2019)

What was measured:
c-kit mutant D816V = target: T1, c-kit mutant D816V (Homo sapiens, UniProt P10721, D816V/DEL694-753); experiment: c-Kit mutant D816V biochemical assay, AlphaScreen; settings: c-kit D816V biochemical inhibitory activity; read-out: Biochemical activity (IC50 μM) Kit D816V
T1 construct: residues 551-934, kinase insertion domain residues 694-753 deleted; 6x-histidine (N); made in house; host or cells: E. coli Arctic Express (DE3) RIL (Stratagene)
How it was run: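 Eight-point, threefold compound series incubated 30 min at room temperature with E. coli-produced D816V kinase, 10 μM ATP, Mg2+/Mn2+ HEPES buffer pH 7.2 and 5% DMSO. After EDTA stop, streptavidin and anti-phosphotyrosine (PY20) AlphaScreen beads gave the read-out, and IC50 was fitted from the concentration–signal curve.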

c-kit kinase = target: T2, c-kit kinase (Homo sapiens, UniProt P10721); experiment: c-Kit biochemical assay, AlphaScreen, 10 μM ATP; settings: c-kit biochemical inhibitory activity; read-out: Biochemical activity (IC50 μM) Kit
T2 construct: The c-kit (or kinase domain thereof) is an active kinase in AlphaScreen; poly-Histidine tag (in-house protein only) (cleaved yes); host or cells: E. coli BL21(DE3)RIL, co-expressed with PTP1B
How it was run: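 His-tagged c-Kit expressed in E. coli with co-expressed PTP1B (dephosphorylated), tag removed; 0.1 ng per reaction with biotinylated-peptide substrate in 50 mM HEPES pH 7.2, 5 mM MgCl2, 5 mM MnCl2, 5% DMSO, 10 μM ATP, 1 h at room temperature. Phosphorylation detected by AlphaScreen (streptavidin donor, PY20 acceptor beads); IC50 from 8-point 1:3 dilution series.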

T1 sequence (P10721 with tags, fused parts or gaps DEL694-753/D816V): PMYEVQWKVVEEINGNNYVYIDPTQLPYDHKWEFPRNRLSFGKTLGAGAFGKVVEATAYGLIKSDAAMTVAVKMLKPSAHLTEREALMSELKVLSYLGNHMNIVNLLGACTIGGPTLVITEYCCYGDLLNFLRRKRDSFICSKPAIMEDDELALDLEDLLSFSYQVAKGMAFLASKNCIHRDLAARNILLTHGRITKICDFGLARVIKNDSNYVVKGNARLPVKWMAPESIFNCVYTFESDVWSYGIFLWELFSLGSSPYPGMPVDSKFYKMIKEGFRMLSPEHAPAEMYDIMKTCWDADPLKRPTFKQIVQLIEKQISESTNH
T2 sequence (P10721 26-976): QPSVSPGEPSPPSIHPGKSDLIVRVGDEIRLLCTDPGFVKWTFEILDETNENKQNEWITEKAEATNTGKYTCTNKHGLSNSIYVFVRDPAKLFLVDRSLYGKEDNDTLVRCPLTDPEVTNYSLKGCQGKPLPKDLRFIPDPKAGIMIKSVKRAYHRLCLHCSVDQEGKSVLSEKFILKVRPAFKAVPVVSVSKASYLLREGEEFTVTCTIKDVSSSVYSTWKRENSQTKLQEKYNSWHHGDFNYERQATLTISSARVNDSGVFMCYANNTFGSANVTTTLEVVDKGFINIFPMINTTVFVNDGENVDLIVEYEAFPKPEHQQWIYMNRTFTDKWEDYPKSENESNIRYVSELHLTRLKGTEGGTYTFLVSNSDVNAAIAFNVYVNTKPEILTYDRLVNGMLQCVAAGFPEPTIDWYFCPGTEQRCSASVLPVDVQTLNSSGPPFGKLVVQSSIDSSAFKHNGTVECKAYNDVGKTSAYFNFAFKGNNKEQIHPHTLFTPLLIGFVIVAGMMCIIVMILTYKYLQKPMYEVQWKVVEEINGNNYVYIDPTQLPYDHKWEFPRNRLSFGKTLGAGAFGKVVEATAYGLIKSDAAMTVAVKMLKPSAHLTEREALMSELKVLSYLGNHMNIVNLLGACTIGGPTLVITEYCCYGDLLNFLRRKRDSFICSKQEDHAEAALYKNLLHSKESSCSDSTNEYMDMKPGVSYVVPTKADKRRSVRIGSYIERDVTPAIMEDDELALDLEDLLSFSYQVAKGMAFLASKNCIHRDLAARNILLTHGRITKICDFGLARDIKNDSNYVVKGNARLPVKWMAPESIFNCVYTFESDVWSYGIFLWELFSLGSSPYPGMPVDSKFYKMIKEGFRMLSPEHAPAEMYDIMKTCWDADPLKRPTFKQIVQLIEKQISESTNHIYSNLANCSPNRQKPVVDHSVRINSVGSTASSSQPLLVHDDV

Structure (SMILES) | IC50 (c-kit mutant D816V) | IC50 (c-kit kinase)
Cc1cc2c(-c3ccc(NS(=O)(=O)c4cc(Cl)c(Cl)s4)cc3)ncnc2[nH]1 [P-0299, 4,5-dichloro-N-[4-(6-methyl-7H-pyrrolo[2,3-d]pyrimidin-4-yl)phenyl]thiophene-2-sulfonamide] | 1 to 10 µM | 1 to 10 µM
Cc1cc2c(-c3ccc(NS(=O)(=O)c4sc(C)nc4C)cc3)ncnc2[nH]1 [P-0300, 2,4-dimethyl-N-[4-(6-methyl-7H-pyrrolo[2,3-d]pyrimidin-4-yl)phenyl]thiazole-5-sulfonamide] | 1 to 10 µM | 10 to 200 µM
Cc1ccc(S(=O)(=O)Nc2ccc(-c3ncnc4[nH]c(C)cc34)cc2)cn1 [P-0301, 6-methyl-N-[4-(6-methyl-7H-pyrrolo[2,3-d]pyrimidin-4-yl)phenyl]pyridine-3-sulfonamide] | 0.0001 to 1 µM | 1 to 10 µM
Cc1cc2c(-c3ccc(NS(=O)(=O)c4ccc5c(c4)CCC5)cc3)ncnc2[nH]1 [P-0302, N-[4-(6-methyl-7H-pyrrolo[2,3-d]pyrimidin-4-yl)phenyl]indane-5-sulfonamide] | 0.0001 to 1 µM | 10 to 200 µM
Cc1cc2c(-c3ccc(NS(=O)(=O)c4ccc5oncc5c4)cc3)ncnc2[nH]1 [P-0303, N-[4-(6-methyl-7H-pyrrolo[2,3-d]pyrimidin-4-yl)phenyl]-1,2-benzoxazole-5-sulfonamide] | 10 to 200 µM | 10 to 200 µM
Cc1cc2c(-c3ccc(NS(=O)(=O)c4cc(Cl)cs4)cc3)ncnc2[nH]1 [P-0304, 4-chloro-N-[4-(6-methyl-7H-pyrrolo[2,3-d]pyrimidin-4-yl)phenyl]thiophene-2-sulfonamide] | 1 to 10 µM | 0.0001 to 1 µM
Cc1csc(S(=O)(=O)Nc2ccc(-c3ncnc4[nH]c(C)cc34)cc2)c1 [P-0305, 4-methyl-N-[4-(6-methyl-7H-pyrrolo[2,3-d]pyrimidin-4-yl)phenyl]thiophene-2-sulfonamide] | 1 to 10 µM | 0.0001 to 1 µM
Cc1cc2c(-c3ccc(NS(=O)(=O)c4ccc5c(c4)CCO5)cc3)ncnc2[nH]1 [P-0307, N-[4-(6-methyl-7H-pyrrolo[2,3-d]pyrimidin-4-yl)phenyl]-2,3-dihydrobenzofuran-5-sulfonamide] | 1 to 10 µM | 10 to 200 µM
Cc1ccc2sc(S(=O)(=O)Nc3ccc(-c4ncnc5[nH]c(C)cc45)cc3)cc2c1 [P-0308, 5-methyl-N-[4-(6-methyl-7H-pyrrolo[2,3-d]pyrimidin-4-yl)phenyl]benzothiophene-2-sulfonamide] | 1 to 10 µM | 10 to 200 µM
Cc1cc2c(-c3ccc(NS(=O)(=O)c4cc5ccccc5s4)cc3)ncnc2[nH]1 [P-0309, N-[4-(6-methyl-7H-pyrrolo[2,3-d]pyrimidin-4-yl)phenyl]benzothiophene-2-sulfonamide] | 1 to 10 µM | 1 to 10 µM
Cc1cc2c(-c3ccc(NS(=O)(=O)c4ccc(OC(C)C)cc4)cc3)ncnc2[nH]1 [P-0311, 4-isopropoxy-N-[4-(6-methyl-7H-pyrrolo[2,3-d]pyrimidin-4-yl)phenyl]benzenesulfonamide] | 10 to 200 µM | 10 to 200 µM
Cc1cc2c(-c3ccc(NS(=O)(=O)c4ccc(C)s4)cc3)ncnc2[nH]1 [P-0313, 5-methyl-N-[4-(6-methyl-7H-pyrrolo[2,3-d]pyrimidin-4-yl)phenyl]thiophene-2-sulfonamide] | 1 to 10 µM | 1 to 10 µM
Cc1cc2c(-c3ccc(NS(=O)(=O)c4ccc(F)c(F)c4)cc3)ncnc2[nH]1 [P-0314, 3,4-difluoro-N-[4-(6-methyl-7H-pyrrolo[2,3-d]pyrimidin-4-yl)phenyl]benzenesulfonamide] | 1 to 10 µM | 10 to 200 µM
CCc1ccc(S(=O)(=O)Nc2ccc(-c3ncnc4[nH]c(C)cc34)cc2)cc1 [P-0315, 4-ethyl-N-[4-(6-methyl-7H-pyrrolo[2,3-d]pyrimidin-4-yl)phenyl]benzenesulfonamide] | 0.0001 to 1 µM | 1 to 10 µM
Cc1cc2c(-c3ccc(NS(=O)(=O)c4ccc(C(F)(F)F)cc4)cc3)ncnc2[nH]1 [P-0317, N-[4-(6-methyl-7H-pyrrolo[2,3-d]pyrimidin-4-yl)phenyl]-4-(trifluoromethyl)benzenesulfonamide] | 0.0001 to 1 µM | 10 to 200 µM
